Here are results for two molecules from ChEMBL document CHEMBL1201862, “PubChem BioAssay data set” (2004).

Common to all, as to assay: growth of human tumour cells (NCI), 48 h
For assay [1], the system named is DU-145.
For assay [2], the system named is BT-549.
Assay [3] relates to MDA-N.
The subject of assay [4] is PC-3.
Assay [5] has as its system ACHN.
Assay [6] relates to TK-10.

The structures appear in SMILES notation.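 1) Cells in 96-well plates. 2) Compound, 48 h, 5 concentrations. 3) Linear interpolation between surrounding doses. 4) Unreached endpoint = highest concentration. The concentration for 50% growth inhibition is given as GI50.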 The source made the active and inactive calls. No stated cut-off is given here; in the data, active = GI50 up to about 1.1 µM and inactive = higher. Some results are limits rather than exact numbers.

Regarding `COc1cc([C@@H]2c3cc4c(cc3[C@@H](OC3OC5COC(C)OC5C(O)C3O)[C@H]3COC(=O)[C@H]23)OCO4)cc(OC)c1O` (stereo partly specified), the GI50 in assay [1] was 849 nM (active); in assay [2] it was 2.4 µM (inactive); in assay [3] it was 968 nM (active); in assay [4] it was 661 nM (active).
For the molecule `CCOC(=O)C(C#N)(Cc1c[nH]c2ccccc12)NC(C)=O` (stereo unspecified), the GI50 in assay [5] and in assay [6] was > 100 µM (inactive) in each case.
